Experiments:
mice = assay: Mouse fear extinction paradigm (PTSD model); type: in vivo; details: methylone 30 mg/kg IP; day 3
Source text: Effective PTSD treatments facilitate the disassociation between a traumatic memory and the patient's fear response, making cues for the traumatic memory evoke less of a fear response. This is modeled in the mouse fear extinction paradigm (see FIG. 9A) which takes place over 3 days. On day 1 (fear conditioning), mice are trained to acquire a “traumatic memory,” namely associating the conditioned stimulus (CS, tone) to the unconditioned stimulus (US, foot shock). On day 2 (extinction training), they are trained to forget the traumatic memory association by presenting the CS 6 times (with no US) in a novel environment. On day 3 (extinction recall), the mice are “asked” if that tone (CS) still elicits a fearful response, as measured by the time spent freezing when the tone is presented. Less time freezing means better extinction recall. Drugs that improve extinction recall reduce freezing time on day 3, and, therefore, show potential as a PTSD treatment.

168 GPCRs [1] = target: 168 GPCRs (Homo sapiens, UniProt O14842); assay: β-arrestin based GPCR screen (PathHunter / GPCRmax), antagonist mode
168 GPCRs [2] = target: 168 GPCRs (Homo sapiens, UniProt O43603); assay: as above
168 GPCRs [3] = target: 168 GPCRs (Homo sapiens, UniProt O43614); assay: as above
168 GPCRs [4] = target: 168 GPCRs (Homo sapiens, UniProt P25106); assay: as above
168 GPCRs [5] = target: 168 GPCRs (Homo sapiens, UniProt P32249); assay: as above
168 GPCRs [6] = target: 168 GPCRs (Homo sapiens, UniProt P41146); assay: as above
168 GPCRs [7] = target: 168 GPCRs (Homo sapiens, UniProt P46091); assay: as above
168 GPCRs [8] = target: 168 GPCRs (Homo sapiens, UniProt P47898); assay: as above; details: HTR5A
168 GPCRs [9] = target: 168 GPCRs (Homo sapiens, UniProt P49019); assay: as above; details: GPR109B
168 GPCRs [10] = target: 168 GPCRs (Homo sapiens, UniProt Q01726); assay: as above; details: MC1R
168 GPCRs [11] = target: 168 GPCRs (Homo sapiens, UniProt Q03431); assay: as above
168 GPCRs [12] = target: 168 GPCRs (Homo sapiens, UniProt Q8TCW9); assay: as above
Chain of 168 GPCRs (Homo sapiens, UniProt Q8TCW9) (Q8TCW9 whole entry): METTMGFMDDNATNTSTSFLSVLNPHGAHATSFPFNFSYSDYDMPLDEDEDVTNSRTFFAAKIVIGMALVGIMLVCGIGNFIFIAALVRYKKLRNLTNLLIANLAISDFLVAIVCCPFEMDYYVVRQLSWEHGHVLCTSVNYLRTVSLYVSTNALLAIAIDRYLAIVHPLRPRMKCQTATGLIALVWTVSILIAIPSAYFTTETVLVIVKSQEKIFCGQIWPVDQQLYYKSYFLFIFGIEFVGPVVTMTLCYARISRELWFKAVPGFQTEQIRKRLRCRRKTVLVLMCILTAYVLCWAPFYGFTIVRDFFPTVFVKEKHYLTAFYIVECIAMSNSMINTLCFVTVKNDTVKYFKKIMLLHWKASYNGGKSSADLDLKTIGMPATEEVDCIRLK

Chain of 168 GPCRs (Homo sapiens, UniProt O43614) (O43614 whole entry): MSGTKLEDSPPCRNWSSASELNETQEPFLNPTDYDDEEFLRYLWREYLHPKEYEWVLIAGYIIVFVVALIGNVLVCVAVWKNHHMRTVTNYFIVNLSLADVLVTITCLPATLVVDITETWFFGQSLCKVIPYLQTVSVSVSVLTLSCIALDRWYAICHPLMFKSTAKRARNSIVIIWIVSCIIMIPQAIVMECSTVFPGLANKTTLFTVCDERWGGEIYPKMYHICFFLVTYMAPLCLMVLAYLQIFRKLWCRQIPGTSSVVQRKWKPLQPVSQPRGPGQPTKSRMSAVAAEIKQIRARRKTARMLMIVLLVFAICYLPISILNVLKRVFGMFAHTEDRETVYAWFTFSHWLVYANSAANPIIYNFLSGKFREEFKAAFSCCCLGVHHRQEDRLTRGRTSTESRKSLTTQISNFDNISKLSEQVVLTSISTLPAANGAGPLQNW
Chain of 168 GPCRs (Homo sapiens, UniProt Q03431) (Q03431 27-593): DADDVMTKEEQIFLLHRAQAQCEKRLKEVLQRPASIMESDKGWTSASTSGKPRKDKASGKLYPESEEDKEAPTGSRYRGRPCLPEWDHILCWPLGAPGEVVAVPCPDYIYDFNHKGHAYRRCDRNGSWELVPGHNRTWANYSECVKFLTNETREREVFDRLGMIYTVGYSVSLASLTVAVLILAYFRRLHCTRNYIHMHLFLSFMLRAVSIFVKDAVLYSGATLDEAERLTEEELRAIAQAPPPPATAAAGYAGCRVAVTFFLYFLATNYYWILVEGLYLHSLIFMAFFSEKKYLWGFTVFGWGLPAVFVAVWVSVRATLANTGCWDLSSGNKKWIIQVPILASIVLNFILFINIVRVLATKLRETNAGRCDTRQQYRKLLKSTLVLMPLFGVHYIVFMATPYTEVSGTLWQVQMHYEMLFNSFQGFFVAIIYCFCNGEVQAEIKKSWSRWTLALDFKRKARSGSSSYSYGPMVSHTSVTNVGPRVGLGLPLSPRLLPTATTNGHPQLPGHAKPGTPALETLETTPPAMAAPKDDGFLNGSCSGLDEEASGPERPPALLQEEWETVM
Chain of 168 GPCRs (Homo sapiens, UniProt P25106) (P25106 whole entry): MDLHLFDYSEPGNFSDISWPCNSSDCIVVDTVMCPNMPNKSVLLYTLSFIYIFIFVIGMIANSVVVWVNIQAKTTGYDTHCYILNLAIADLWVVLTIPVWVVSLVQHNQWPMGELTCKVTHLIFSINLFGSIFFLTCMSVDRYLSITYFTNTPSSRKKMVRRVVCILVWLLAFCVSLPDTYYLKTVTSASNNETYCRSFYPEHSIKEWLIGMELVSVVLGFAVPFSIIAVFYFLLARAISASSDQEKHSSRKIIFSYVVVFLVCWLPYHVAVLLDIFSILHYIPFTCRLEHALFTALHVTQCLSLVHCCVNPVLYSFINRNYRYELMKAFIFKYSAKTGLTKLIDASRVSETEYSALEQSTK
Chain of 168 GPCRs (Homo sapiens, UniProt O43603) (O43603 whole entry): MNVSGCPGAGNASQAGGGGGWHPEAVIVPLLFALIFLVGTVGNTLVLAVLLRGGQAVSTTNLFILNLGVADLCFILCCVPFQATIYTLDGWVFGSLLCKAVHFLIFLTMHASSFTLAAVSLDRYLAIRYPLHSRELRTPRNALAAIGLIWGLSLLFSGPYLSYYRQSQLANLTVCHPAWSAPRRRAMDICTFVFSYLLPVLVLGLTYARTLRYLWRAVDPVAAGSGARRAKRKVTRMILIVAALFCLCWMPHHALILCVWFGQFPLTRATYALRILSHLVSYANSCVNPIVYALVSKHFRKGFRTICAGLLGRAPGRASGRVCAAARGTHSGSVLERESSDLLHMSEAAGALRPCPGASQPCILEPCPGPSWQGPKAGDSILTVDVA
Chain of 168 GPCRs (Homo sapiens, UniProt P41146) (P41146 whole entry): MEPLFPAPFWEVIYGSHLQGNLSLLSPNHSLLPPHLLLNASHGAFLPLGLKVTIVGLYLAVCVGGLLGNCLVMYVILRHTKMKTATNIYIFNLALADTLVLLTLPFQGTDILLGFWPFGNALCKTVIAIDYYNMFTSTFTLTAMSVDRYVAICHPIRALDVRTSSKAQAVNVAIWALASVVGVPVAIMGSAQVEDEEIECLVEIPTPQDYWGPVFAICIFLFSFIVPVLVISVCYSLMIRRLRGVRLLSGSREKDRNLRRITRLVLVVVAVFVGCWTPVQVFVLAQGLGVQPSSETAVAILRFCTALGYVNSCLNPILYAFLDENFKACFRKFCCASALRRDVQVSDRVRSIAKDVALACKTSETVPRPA
Chain of 168 GPCRs (Homo sapiens, UniProt P32249) (P32249 whole entry): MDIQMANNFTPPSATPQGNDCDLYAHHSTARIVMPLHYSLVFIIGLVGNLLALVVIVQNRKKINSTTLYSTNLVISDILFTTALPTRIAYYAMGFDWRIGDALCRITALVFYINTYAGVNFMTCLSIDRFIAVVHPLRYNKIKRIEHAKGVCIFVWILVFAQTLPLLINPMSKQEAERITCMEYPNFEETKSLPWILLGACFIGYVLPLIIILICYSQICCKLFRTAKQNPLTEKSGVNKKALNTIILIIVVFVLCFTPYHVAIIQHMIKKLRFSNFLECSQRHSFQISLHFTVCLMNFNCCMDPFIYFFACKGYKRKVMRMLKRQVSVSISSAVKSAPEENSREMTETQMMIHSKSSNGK
Chain of 168 GPCRs (Homo sapiens, UniProt O14842) (O14842 whole entry): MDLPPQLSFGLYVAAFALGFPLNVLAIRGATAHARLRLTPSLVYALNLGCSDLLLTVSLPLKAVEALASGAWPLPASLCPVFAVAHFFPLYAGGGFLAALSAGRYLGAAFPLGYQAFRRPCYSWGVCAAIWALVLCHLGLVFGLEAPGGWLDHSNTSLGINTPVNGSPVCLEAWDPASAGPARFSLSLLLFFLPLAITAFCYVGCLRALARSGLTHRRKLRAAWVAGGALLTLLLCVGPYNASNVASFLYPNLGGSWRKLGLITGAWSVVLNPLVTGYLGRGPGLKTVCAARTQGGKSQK
Chain of 168 GPCRs (Homo sapiens, UniProt P46091) (P46091 whole entry): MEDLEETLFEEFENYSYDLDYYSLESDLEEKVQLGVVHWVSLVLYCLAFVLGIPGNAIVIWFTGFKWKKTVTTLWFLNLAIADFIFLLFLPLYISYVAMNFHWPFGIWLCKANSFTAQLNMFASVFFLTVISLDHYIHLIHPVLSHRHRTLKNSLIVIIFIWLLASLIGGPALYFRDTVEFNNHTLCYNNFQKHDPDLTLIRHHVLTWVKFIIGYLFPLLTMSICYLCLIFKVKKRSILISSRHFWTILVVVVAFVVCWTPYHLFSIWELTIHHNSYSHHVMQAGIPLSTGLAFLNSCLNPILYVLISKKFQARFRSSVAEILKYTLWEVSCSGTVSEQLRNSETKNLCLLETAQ
Chain of 168 GPCRs (Homo sapiens, UniProt Q01726) (Q01726 whole entry): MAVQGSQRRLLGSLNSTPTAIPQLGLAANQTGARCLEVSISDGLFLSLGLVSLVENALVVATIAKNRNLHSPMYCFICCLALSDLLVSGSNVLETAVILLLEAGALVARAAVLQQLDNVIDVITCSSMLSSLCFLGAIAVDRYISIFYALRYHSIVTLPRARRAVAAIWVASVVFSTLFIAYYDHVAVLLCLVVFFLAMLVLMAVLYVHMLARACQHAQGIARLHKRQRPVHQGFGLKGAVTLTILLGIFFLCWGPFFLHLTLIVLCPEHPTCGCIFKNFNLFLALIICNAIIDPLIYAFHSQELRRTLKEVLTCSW
Chain of 168 GPCRs (Homo sapiens, UniProt P47898) (P47898 whole entry): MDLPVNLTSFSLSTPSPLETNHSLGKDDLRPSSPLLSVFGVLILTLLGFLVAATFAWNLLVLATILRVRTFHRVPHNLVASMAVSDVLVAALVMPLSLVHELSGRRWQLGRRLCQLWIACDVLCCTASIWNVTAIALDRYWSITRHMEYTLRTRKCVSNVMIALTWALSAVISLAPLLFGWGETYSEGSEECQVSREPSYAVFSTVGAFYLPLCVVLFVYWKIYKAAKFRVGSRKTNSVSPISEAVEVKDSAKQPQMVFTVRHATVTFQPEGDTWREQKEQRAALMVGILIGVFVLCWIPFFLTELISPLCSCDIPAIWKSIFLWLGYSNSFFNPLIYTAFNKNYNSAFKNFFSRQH
Chain of 168 GPCRs (Homo sapiens, UniProt P49019) (P49019 whole entry): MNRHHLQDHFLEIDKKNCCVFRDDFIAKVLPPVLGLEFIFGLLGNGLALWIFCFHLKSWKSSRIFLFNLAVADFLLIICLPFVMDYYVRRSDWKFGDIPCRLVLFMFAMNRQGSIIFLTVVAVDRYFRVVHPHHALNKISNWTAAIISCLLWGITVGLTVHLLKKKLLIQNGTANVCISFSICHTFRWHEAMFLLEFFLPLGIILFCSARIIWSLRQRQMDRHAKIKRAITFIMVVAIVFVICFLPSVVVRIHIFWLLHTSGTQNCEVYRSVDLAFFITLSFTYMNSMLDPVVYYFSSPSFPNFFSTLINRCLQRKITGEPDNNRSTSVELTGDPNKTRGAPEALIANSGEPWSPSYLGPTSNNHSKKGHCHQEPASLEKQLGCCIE

Q: For CNC(C)C(=O)c1ccc2c(c1)OCO2 (stereo not shown) [methylone, 3,4-methylenedioxy-N-methylcathinone], which “locomotion during testing session” value (mice) is on record?
A: no differences between groups in locomotion

Q: And the activity at 10 µM (168 GPCRs [1]; FFAR1, Antagonist mode, 10 uM)?
A: -13.8%

Q: And the activity at 1 µM (168 GPCRs [1]; FFAR1, Antagonist, 1 uM)?
A: -7.9%

Q: What about the activity at 10 µM (168 GPCRs [2]; GALR2, Antagonist mode, 10 uM) of the same compound?
A: 1.5%

Q: And the activity at 1 µM (168 GPCRs [2]; GALR2, Antagonist, 1 uM)?
A: 7%

Q: And the activity at 10 µM (168 GPCRs [3]; HCRTR2, Antagonist mode, 10 uM)?
A: 2.4%

Q: What about the activity at 1 µM (168 GPCRs [3]; HCRTR2, Antagonist, 1 uM) of the same compound?
A: 6.4%

Q: What about the activity at 10 µM (168 GPCRs [4]; CXCR7, Antagonist mode, 10 uM) of the same compound?
A: 7.3%

Q: What about the activity at 1 µM (168 GPCRs [4]; CXCR7, Antagonist, 1 uM) of the same compound?
A: 14.1%

Q: What about the activity at 10 µM (168 GPCRs [5]; EBI2, Antagonist mode, 10 uM) of the same compound?
A: 2.6%

Q: What about the activity at 1 µM (168 GPCRs [5]; EBI2, Antagonist, 1 uM) of the same compound?
A: 0.6%

Q: What about the activity at 10 µM (168 GPCRs [6]; OPRL1, Antagonist mode, 10 uM) of the same compound?
A: 13.2%

Q: And the activity at 1 µM (168 GPCRs [6]; OPRL1, Antagonist, 1 uM)?
A: 17.1%

Q: What about the activity at 10 µM (168 GPCRs [7]; GPR1, Antagonist mode, 10 uM) of the same compound?
A: 7.4%

Q: What about the activity at 1 µM (168 GPCRs [7]; GPR1, Antagonist, 1 uM) of the same compound?
A: 4.4%

Q: And the activity at 10 µM (168 GPCRs [8]; Antagonist mode, 10 uM)?
A: 1.6%

Q: What about the activity at 1 µM (168 GPCRs [8]; Antagonist, 1 uM) of the same compound?
A: 9.8%

Q: And the activity at 10 µM (168 GPCRs [9]; Antagonist mode, 10 uM)?
A: -20.2%

Q: And the activity at 1 µM (168 GPCRs [9]; Antagonist, 1 uM)?
A: -16.5%

Q: And the activity at 10 µM (168 GPCRs [10]; Antagonist mode, 10 uM)?
A: 15.9%

Q: And the activity at 1 µM (168 GPCRs [10]; Antagonist, 1 uM)?
A: 20.1%

Q: And the activity at 10 µM (168 GPCRs [11]; PTHR1, Antagonist mode, 10 uM)?
A: -8.3%

Q: What about the activity at 1 µM (168 GPCRs [11]; PTHR1, Antagonist, 1 uM) of the same compound?
A: 2.2%

Q: And the activity at 10 µM (168 GPCRs [12]; PROKR1, Antagonist mode, 10 uM)?
A: 3.3%

Q: What about the “% Activity” value (168 GPCRs [12]; PROKR1, Antagonist) of the same compound?
A: 8.7%
